What was measured:
[1] = system: EPSPS from R and S biotypes of rigid ryegrass; assay: EPSPS activity assay in the presence of glyphosate; format: biochemical, Lolium rigidum; conditions: glyphosate from 5 to 5000 µM; crown tissue extract; R versus S biotype
Experimental: Extraction methods for EPSPS are modified from methods discussed in Boerboom et al., Weed Sci. 38:463-467 (1990). Crown tissue (0.5 gram fresh weight per sample) is harvested from California rigid ryegrass plants, frozen in liquid nitrogen, and grounded in a cold mortar with 150 mg polyvinylpolypyrrolidone (PVPP). The fine powder tissue is ground further in 0.5 ml extraction buffer (pH 7.5) containing 10 mM Trizma HC1, 1 mM ethylenediaminetetraacetic acid (EDTA), 10% (v/v) glycerol, 1 mg ml^−1 bovine serum albumin (BSA), 10 mM ascorbate, 1 mM benzamidine (BAM), and 5 mM dithiothreitol (DTT). The mixture is centrifuged at 15,000×g for 10 min, and the supernatant is desalted in 1.0 ml Sephadex G-50 column (^7 MICRO-SPINS® Shephadex G-50 column, Life Science Products Inc., Frederick, Colo.) and further centrifuged at 1,000×g for 3 min. Total protein in the supernatant is quantified spectrometrically at 595 nm followed the method discussed in Bradford, Anal. Biochem 72:248-254 (1976).
Assay of EPSPS activity is modified from methods discussed in Westwood and Weller, Weed Sci. 45:2-11 (1997). […]
Data from duplicate experiments with three replications of each treatment are analyzed by non-linear regression and fitted to a log-logistic model, […]

[2] = system: F1 hybrid of perennial ryegrass and glyphosate resistant rigid ryegrass; assay: Glyphosate sensitivity of F1 hybrid population; format: in vivo, Lolium perenne x Lolium rigidum; conditions: 50 plants, 3 weeks after treatment
Experimental: The R biotype of California rigid ryegrass, which survived 8× glyphosate and perennial ryegrass, which died from 0.25× of glyphosate, are grown individually in 950-ml pots with professional planting mix media as discussed above. Plants are maintained in greenhouse with supplemental light, watered daily, and fertilized weekly with NPK water soluble fertilizer (20-20-20). At the mature vegetative stage, perennial ryegrass plants are vernalized in the growth chamber with the temperature 4 ±1 C, 8 h day and 16 h night. After 4 weeks vernalization, the plants are removed and maintained in greenhouse until flowering.
Seed heads of perennial ryegrass are designated to be pollinated by California rigid ryegrass also vice-verse because both of the species are allogamus plants. Both are known to be self-incompatible. After the emergence of seed heads and before the pollen opened, one plant from each species is isolated in one room of greenhouse. To provide conditions for cross-pollination, perennial ryegrass and rigid ryegrass plants are placed next to each other. During the pollination period, plants are maintained regularly as mentioned previously until the seed reached the maturity. The successful hybridization is indicated with the full development of mature seeds which had brown color. Seeds are harvested from both perennial and rigid ryegrass. Seeds from perennial ryegrass hybrids are used for further evaluation.
Seeds of the F1 hybrid harvested from perennial ryegrass are grown and maintained as individual plants in the greenhouse as described previously. At the tillering stage, 50 plants for each of glyphosate rates (0.25, 0.5, 1.0, 1.5, 2.0, 4.0, and 8×, where x=1.12 kg ha^−1) are evaluated for sensitivity or resistance. Glyphosate is delivered in 187 L ha^−1 spray solutions with 172.5 kPa pressure using a flat fan nozzle. The dead or survivors in each treatment are counted 3 weeks after treatment and the plants with the highest level of resistance are further maintained and intercrossed to generate F2.

[3] = system: resistant (R) clone from F2bc1 hybrid; assay: Glyphosate sensitivity of resistant clone from F2bc1; format: in vivo, Lolium perenne x Lolium rigidum
Experimental: The resistant plant from F2 population is backcrossed to the S parent (perennial ryegrass). Procedures for vernalization and pollination are similar to what is described above. Plants of the F1 hybrid from the backcross (F1bc1) are allowed to intercross to generate F2 (F2bc1). The inheritance of glyphosate resistance traits is evaluated in the F2bc1 population. Glyphosate sensitivity is evaluated at 0.25× and 8× glyphosate. Data collection and genetic evaluation are similar to the procedures as described above.
Backcrossing between the resistant plants from F2 to the sensitive parent of perennial ryegrass is designed to re-capture agronomic characteristics of sensitive parents (perennial ryegrass). The level of glyphosate resistance in the F1bc1 population appears to be similar to the previous results in F1 population. Distribution of glyphosate sensitivity level in the F2bc1 population is illustrated in FIG. 5. A sample of the resistant plants from the F2bc1 is evaluated for the level of sensitivity at 0, 1, 2, 4, 6, 8, 10, 12, and 14× glyphosate and data is illustrated in FIG. 6. No injury is observed up to 6× glyphosate, slight injury is observed at 8× and 10×, and severe injury is observed at 12× glyphosate.

[4] = Glyphosate 0.25 kg ha^-1 as headed
[5] = Glyphosate 0.50 kg ha^-1 as headed
[6] = Glyphosate 1 kg ha^-1 as headed
[7] = Glyphosate 4 kg ha^-1 as headed
[8] = Glyphosate 8 kg ha^-1 as headed

In the case of `O=C(O)CNCP(=O)(O)O` [glyphosate, N-(phosphonomethyl) glycine], the “inhibition of EPSPS activity” value [1] is reported as “significantly inhibited more in S than in R”, the “Severely injured and dead” value [2, 4] is reported as 0% and the Survivors [2, 4] is reported as 100%. The “Severely injured and dead” value [2, 5] was 6%, the Survivors [2, 5] was 94% and the “Severely injured and dead” value [2, 6] was 10%. The Survivors [2, 6] was 90%, the Survivors ([2]; Glyphosate 2 kg ha^-1 as headed (2× in text)) was 90% and the Survivors ([2]; Glyphosate 2 kg ha^-1 as headed (2× in text), listed as Glyphosate) was 90**) Percent. The “Severely injured and dead” value ([2]; Glyphosate 2 kg ha^-1 as headed) was 10%, the “Severely injured and dead” value [2, 7] was 100% and the Survivors [2, 7] was 0%. For the same compound, the “Severely injured and dead” value [2, 8] was 100%, the Survivors [2, 8] was 0% and the injury ([3]; 8× and 10× glyphosate) was “slight injury”. For the same compound, the injury ([3]; 12× glyphosate) was “severe injury” and the injury ([3]; up to 6× glyphosate) was “No injury”.

Source: patent publication US7906709B2, “Methods for breeding glyphosate resistant plants and compositions thereof” (priority 2006, dated 2011)
